Patent US12503426B2, “Synthetic derivatives of oleoyl-lysophosphatidylinositol (oleoyl-LPI) and uses thereof” (LIPOVEXA SRL, priority 2017, dated 2025)
pEC50: −log10 of the molar value.

Legend:
[1] = tested on: NCI-H716 cells; test: GLP-1 secretion in NCI-H716 cells, in vitro human L cells model (Examples 30-33); format: cell-based; details: for GLP-1 biosynthesis and secretion from NCI-H716 L cells / level of GLP-1 biosynthesis and secretion compared with oleoyl-LPI: 20 μM, 2 hours; for GLP-1 biosynthesis and secretion from NCI-H716 L cells: normalized against DMSO vehicle control; for Emax: Homo sapiens, NCI-H716, 2 h; for activity in inducing and/or increasing secretion of GLP-1 from cells of the GI tract: summary statement, compared with oleoyl-LPI
Protocol: (§1) To evaluate the GLP-1 biosynthesis and secreting capabilities of the compounds of formula I in vitro using the human-derived cell line NCI-H716, 50,000 such cells were seeded per well of a 24-well plate pre-coated with a thin layer of Matrigel (0.15 mg/ml) in RPMI complete (RPMI additioned with FBS 10%, Glucose 2 g/L, Glutamine 4 mM, Sodium Bicarbonate 2 g/L, Pen/Strep 1× pH 7.4 at 37° C.) and incubated at 37° C. in humidified 5% CO2 atmosphere to induce endocrine differentiation.
After 48 hours, media was withdrawn and cells washed once with warm HBSS (Hank's balanced salt solution) and then incubated in duplicate for 2 hours with the different dilutions of the oleoyl-LPI, OEA, DMSO (as negative control), a test compound of formula I, and KR-62436 10 μg/ml, all dissolved in RPMI serum free (RPMI complete without FBS) at 37° C. in humidified 5% CO2 incubator. Supernatant were quickly collected on ice and stored at −80° C. before quantification of GLP-1 with a commercial ELISA (EMD Millipore) specific for active-GLP-1 species.
as §1, with “1×pH” for “1× pH”
After 48 hours, media was withdrawn and cells washed twice with pre-warm HBSS (Hank's balanced salt solution) and then incubated in duplicate for 2 hours with 250 μl of 20 μM of either oleoyl-LPI, DMSO (as negative control) or a test compound of formula I, and […], all dissolved in RPMI serum free (RPMI complete without FBS) at 37° C. in humidified 5% CO2 incubator. Compounds of formula I tested were ps297b, ps316a, ps318a, ps319a, ps321a and ps323.
Supernatant were quickly collected on ice and stored at −80° C. before quantification of GLP-1 with a commercial ELISA (EMD Millipore) specific for active-GLP-1 species (e.g., GLP-1 (7-36) amide) and […]).
Compounds of formula I were tested for GLP-1 secretion in NCI-H716 cells essentially as describe in examples 30 and 31 above. EC50 GLP-1 secretion readout results were standardized relative to maximum GLP-1 secretion obtained with oleoyl-LPI. EC50 readout results were rated as low GLP-1 secretion activity (0-20% of maximum GLP-1 secretion achieved with oleoyl-LPI), moderate (21-79% of maximum GLP-1 secretion achieved with oleoyl-LPI), and high GLP-1 activity (80% and more of maximum GLP-1 secretion achieved with oleoyl-LPI). Table 3 also outlines the R1, R2 and R3 substituents of the compounds of formula I.

[2] = tested on: colonic cells of the GI tract obtained from guinea pig; test: Ex vivo GLP-1 biosynthesis and secretion, guinea pig GI tract cells; format: cell-based
Protocol: To test for this, a pregnant guinea pig was anesthetized with isoflurane and sacrificed via intra-cardial injection of pentobarbital. Colon and rectum were quickly collected and intraluminal content washed out with ice-cold HBSS. After a thorough cleansing from the faecal material, and gentle scraping of the internal mucosa, the tissue was minced into 3 to 5-millimetre pieces and resuspended into 50 ml of ice cold HBSS. Pellet was spun down and washed again in 50 ml of ice-cold HBSS. Supernatant was carefully removed, and the epithelial fragments were then resuspended for 30 minutes at 37° C. into a 5 ml solution of HEPES 25 mM, collagenase-P 1 mg/ml in HBSS, pH 7.4 at 37° C.
The tissue was then pelleted and resuspended further for about 30 to 40 additional minutes at 37° C. within a 10 ml solution of 1 mg/ml collagenase-P as above.
After the digestion, about 40 ml of pre-warmed DMEM complete media was added (FBS 10%, glucose 4.5 g/L, glutamine 4 mM, sodium pyruvate 1 mM, HEPES 25 mM, sodium bicarbonate 3.7 g/L, Pen/Strep 1× and Ciprofloxacin 10 μg/ml pH 7.4 at 37° C.). Crypts and individual cells were isolated with a […] nylon strainer, spun down at 200 g for 5 minutes, resuspended into 10 ml of DMEM complete media and plated into 20 wells of a 24-well plate coated with a 3D gel of 3 mg/ml Matrigel (BD, Biosciences, Oxford, UK). After one day of incubation at 37° C. 5% CO2 in a humidified incubator, cells were washed with 500 μl of warm HBSS, and treated with 250 μl DMEM serum free (Complete medium without FBS) additioned with KR-62436 10 μg/ml and individually the following drugs or compounds: Forskolin and IBMX (20 μM each), oleoyl-LPI, and the two oleoyl-LPI analogs and/or derivatives ps297b (prepared as described in example 13) and ps316a (prepared as described in example 22) were all tested in quadruplicate at 20 μM.
After a 2-hour long incubation at 37 C 5% CO2, the supernatants were collected on ice, and quickly stored at […]. Active GLP-1 levels (7-37 amide and 7-36) were quantified on 50 μl of supernatant with an ELISA commercial kit (EMD Millipore). DMSO was used as a negative control, the combination of Forskolin and IBMX was included as positive control activators GLP-1. GLP-1 levels measured were standardized against the DMSO control.
The EC50 levels each one of oleoyl-LPI, compound ps297b and compound ps316a were also measured in quadruplicates at the conclusion of the 2 hour incubation. Guinea pig cells obtained as described above were also incubated with […] in quadruplicates and subjected to 2-hour long incubation at 37 C 5% CO2 as described above and EC50 levels measured.

[3] = tested on: Glutag cells; test: GLP-1 secretion by Glutag cells; format: cell-based, murine; details: Glutag cells
Protocol: Glutag cells were maintained in low glucose DMEM (Sigma) (1 g/L) containing 2.0 mM L-glutamine, 1.0 mM sodium pyruvate and supplemented with 10% FBS, 100 IU/ml penicillin, 100 μg/ml streptomycin at a 37° C. and 5% CO2.
Approximately 80,000 Glutag cells were plated in poly-L-lysine-coated 24-well culture plates and grown to about 80% confluence. NCI-H716 cells were seeded on growth factor reduced Matrigel™ (Becton Dickinson, Bedford, MA) in DMEM medium, supplemented with 10% FBS the day before the experiment. For NCI-H716 cells, approximately 25,000 cells were needed for this secretion experiment in order to have good stimulation with lower basal GLP-1 secretion. In brief, Glutag and NCI-H716 cells were washed twice and then incubated for 2 h with FBS-free DMEM containing 1% (M:C) alone (negative control), 10 μM forskolin as positive control (Sigma-Aldrich), or with different concentrations of Oleoyl-LPI. M:C was used as a solvent to prepare stock solutions of fatty acid derivatives and inhibitors. For secretion experiments, medium and cells were collected separately.
In separate studies, GLUTag or NCI-H716 cells were pre-treated for 1 hour with medium alone (1% DMSO, negative control), PD98059 (50 μM; Sigma Chemical Co.), H89 (10 μM; Santa Cruz) followed by treatment with oleoyl-LPI (20 μM), OEA (10 μM), AR231453(1 μM), PMA (10 μM) or forskolin (10 μM, positive control) in the presence of inhibitors, as appropriate, for about 2 h. Medium GLP-1 secretion was calculated as total GLP-1 content of medium normalised for the basal secretion of the control.
In order to investigate the role of different LPI species in enteroendocrine cells, murine (Glutag) and human (NCI-H716) L-cells were stimulated with the following different species of LPI: Arachidonyl-LPI, Stearoyl-LPI, Heptadecenoyl-LPI and oleoyl-LPI, as well as with OEA and LPC. Experiments were performed in duplicate, n=4 and the level of total GLP-1 was measured by ELISA.

[4] = NCI-H716 cells, standardized relative to maximum GLP-1 secretion obtained with oleoyl-LPI

Compound | Emax [1, 4] [%] | further results
CCCCC/C=C\C/C=C\CCCCCCCC(=O)Nc1ccc(-c2nnn[nH]2)cc1F [ps323b] | 0 to 20 | GLP-1 biosynthesis and secretion from NCI-H716 L cells [1]: able to mediate GLP-1 biosynthesis and secretion
CCCCCCCCCCCCCCCC(=O)Nc1ccc(-c2nnn[nH]2)cc1 [ps320c] | 0 to 20 | 
CCCCCCCC/C=C\CCCCCCCC(=O)Nc1ccc(-c2nnnn2C)cc1 [ps298b] | 0 to 20 | 
CCCCCCCC/C=C\CCCCCCCC(=O)Nc1ccc(-c2nnn(C)n2)cc1 [ps298a] | 0 to 20 | 
CCCCCCCC/C=C\CCCCCCCC(=O)Nc1cccc(C#N)c1 [ps315a] | 0 to 20 | 
CCCCC/C=C\C/C=C\CCCCCCCC(=O)Nc1ccc(-c2nnn[nH]2)cc1 [ps316a] | > 80 | GLP-1 biosynthesis and secretion from NCI-H716 L cells [1]: able to mediate GLP-1 biosynthesis and secretion; level of GLP-1 biosynthesis and secretion compared with oleoyl-LPI ([1]; NCI-H716 cells): higher than those achieved from oleoyl-LPI; activity in inducing and/or increasing secretion of GLP-1 from cells of the GI tract [1]: equal to or higher than oleoyl-LPI; GLP-1 levels compared with oleoyl-LPI ([2]; 20 μM, 2 hours): above those observed for the endogenous GRP119 ligand, oleoyl-LPI; GLP-1 biosynthesis and secretion ex vivo ([2]; 20 μM, 2 hours, standardized against DMSO control): stimulated biosynthesis and secretion; stability after incubation ex vivo ([2]; 2 hours incubation ex vivo): remained stable after 2 hours incubation ex vivo; pEC50 ([2]; Cavia porcellus, ex vivo incubation 2 hours, quadruplicates): 4.65
CCCCCCCC/C=C\CCCCCCCC(=O)Nc1ccc(-c2nnn[nH]2)cc1.[Na+] [ps321a] |  | GLP-1 biosynthesis and secretion from NCI-H716 L cells [1]: able to mediate GLP-1 biosynthesis and secretion; GLP-1 secretion Activity relative to oleoyl-LPI [1, 4]: Low (low GLP-1 secretion activity (0-20% of maximum GLP-1 secretion achieved with oleoyl-LPI))
CC(C)c1noc(C2CCN(c3ncnc(Nc4ccc(S(C)(=O)=O)cc4F)c3[N+](=O)[O-])CC2)n1 [AR-231,453] |  | GLP-1 secretion ([3]; two hours treatment, compound alone): significantly increases GLP-1 secretion
CCCCCCCC/C=C\CCCCCCCC(=O)Nc1ccc(C(=O)O)cc1 [ps294a] | 0 to 20 | 
CCCCCCCC/C=C\CCCCCCCC(=O)Nc1ccc(O)cc1 [ps300b] | 0 to 20 | 
CCCCCCCC/C=C\CCCCCCCC(=O)Nc1ccc(C#N)cc1 [ps292a] | 0 to 20 | 
CCCCCCCC/C=C\CCCCCCCC(=O)Nc1ccc(C#N)c(F)c1 [ps308c] | 0 to 20 | 
CCCCCCCC/C=C\CCCCCCCC(=O)Nc1ccc(OC)cc1 [ps301a] | 0 to 20 | 
CCCCC/C=C\C/C=C\CCCCCCCC(=O)Nc1ccc(C#N)cc1F [ps319] | 0 to 20 | GLP-1 biosynthesis and secretion from NCI-H716 L cells [1]: able to mediate GLP-1 biosynthesis and secretion
CCCCCCCC/C=C\CCCCCCCC(=O)Nc1cccc(-c2nnn[nH]2)c1 [ps318a] | > 80 | GLP-1 biosynthesis and secretion from NCI-H716 L cells [1]: able to mediate GLP-1 biosynthesis and secretion; level of GLP-1 biosynthesis and secretion compared with oleoyl-LPI ([1]; NCI-H716 cells): higher than those achieved from oleoyl-LPI; activity in inducing and/or increasing secretion of GLP-1 from cells of the GI tract [1]: equal to or higher than oleoyl-LPI
CCCCC/C=C\C/C=C\C/C=C\C/C=C\CCCC(=O)NCc1ccc(O)c(OC)c1 [Arvanil, N-arachidonoyl-vanillyl-amide] |  | antagonist activity for GPR119 (inventors' conclusion) [3]: weak antagonist for GPR119; GLP-1 secretion, combination treatment ([3]; Arvanil together with AR-231,453): significantly reduced GLP-1 secretion; GLP-1 secretion, combination treatment ([3]; Arvanil with either OEA or LPI): significantly enhanced GLP-1 secretion
CCCCCCCC/C=C\CCCCCCCC(=O)Nc1ccc(C#N)cc1F [ps306a] | 0 to 20 | 
CCCCCCCC/C=C\CCCCCCCC(=O)Nc1ccc(-c2nnn[nH]2)cc1F [ps309a] | > 80 | activity in inducing and/or increasing secretion of GLP-1 from cells of the GI tract [1]: equal to or higher than oleoyl-LPI
CCCCC/C=C\C/C=C\CCCCCCCC(=O)Nc1ccc(C#N)cc1 [ps314b] | 0 to 20 | 
CCCCCCCC/C=C\CCCCCCCC(=O)Nc1ccc(-c2nnn[nH]2)c(F)c1 [ps312a] | 21 to 79 | 
CCCCCCCCCCCCCCCC(=O)Nc1ccc(C#N)cc1 [ps317b] | 0 to 20 | 
CCCCCCCC/C=C\CCCCCCCC(=O)Nc1ccc(C(=O)OC)cc1 [ps293a] | 0 to 20 | 
